Legend:
[1] = test system: Puccinia recondita f. Sp. Tritici; assay: Fungicidal activity against Puccinia recondita f. sp. tritici / wheat / leaf disc preventative (brown rust); assay type: in vivo; settings: foliar, 200 ppm in the applied formulation, wheat leaf segments, preventative, compared to untreated control leaf disks, read-out: disease control
Summary of the method: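 Compound application precedes infection: segments of wheat cv. Kanzler, sprayed at 200 ppm, are inoculated with a spore suspension after 1 day. Incubation is at 19° C. with 75% relative humidity and 12 h light/12 h darkness, and control versus untreated leaves is rated 7 to 9 days post-application.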

[2] = test system: Puccinia recondita f. Sp. Tritici; assay: Fungicidal activity against Puccinia recondita f. sp. tritici / wheat / leaf disc curative (brown rust); assay type: in vivo; settings: foliar, 24 h, 200 ppm in the applied formulation, wheat leaf segments, curative (applied 1 day after inoculation), compared to untreated control leaf disks, read-out: disease control
Summary of the method: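 Segments of wheat cv. Kanzler were laid on agar and inoculated with a spore suspension of the rust, then held in darkness at 19° C and 75% relative humidity. One day later the water-diluted formulated compound was applied, with incubation continued under a 12 h light/dark cycle.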

Phakopsora Pachyrhizi = assay: Fungicidal activity against Phakopsora pachyrhizi / soybean / leaf disc preventative (Asian soybean rust); assay type: in vivo; settings: foliar, 200 ppm in the applied formulation, soybean leaf disks, compared to untreated control leaf disks, read-out: disease control
Summary of the method: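 Preventative soybean leaf-disc test: discs on water agar sprayed with diluted formulated compound, inoculated one day later with spores on the lower surface. Held 24–36 h dark at 20°C, 75% rh, then 12 h light/day; percent disease control versus untreated discs scored 12–14 days after application.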

[3] = test system: Glomerella lagenarium (Colletotrichum lagenarium); assay: Fungicidal activity against Glomerella lagenarium (Colletotrichum lagenarium) liquid culture / cucumber / preventative (anthracnose); assay type: cell-based; settings: Colletotrichum orbiculare; 20 ppm in the applied formulation; liquid culture (PDB), growth inhibition measured photometrically after 3 to 4 days; compared to untreated control; read-out: disease control
Summary of the method: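 Photometric read-out of fungal growth after 2–7 days, expressed as percent antifungal activity versus untreated check. Cryo-stored conidia in PDB; compound at 20 ppm; dark, 24 °C, 96% RH.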

CON(Cc1ccc(-c2noc(C(F)(F)F)n2)cn1)C(=O)C1CC1 [Compound 1.570, N-methoxy-N-[[5-[5-(trifluoromethyl)-1,2,4-oxadiazol-3-yl]-2-pyridyl]methyl]cyclopropanecarboxamide]
≥ 80%: pest or weed control at 200 ppm [1] | pest or weed control at 200 ppm [2] | pest or weed control at 200 ppm (Phakopsora Pachyrhizi) | inhibition of growth at 20 ppm [3]

O=C(C1CCC1)N(Cc1ccc(-c2noc(C(F)(F)F)n2)cc1)C1CC1 [Compound 1.112, N-cyclopropyl-N-[[4-[5-(trifluoromethyl)-1,2.4-oxadiazol-3-yl]phenyl]methyl]-cyclobutane-carboxamide]
≥ 80%: pest or weed control at 200 ppm [1] | pest or weed control at 200 ppm [2] | pest or weed control at 200 ppm (Phakopsora Pachyrhizi) | inhibition of growth at 20 ppm [3]

CCN(Cc1ccc(-c2noc(C(F)(F)F)n2)cc1)C(=O)C1CCCO1 (centres unmarked) [Compound 1.509, N-ethyl-N-[[4-[5-(trifluoromethyl)-1,2,4-oxadiazol-3-yl]phenyl]methyl]-tetrahydrofuran-2-carboxamide]
≥ 80%: pest or weed control at 200 ppm [1] | pest or weed control at 200 ppm [2] | pest or weed control at 200 ppm (Phakopsora Pachyrhizi) | inhibition of growth at 20 ppm [3]

CCCN(Cc1ccc(-c2noc(C(F)(F)F)n2)cc1)C(=O)C1CC1 [Compound 1.574, N-propyl-N-[[4-[5-(trifluoromethyl)-1,2,4-oxadiazol-3-yl]phenyl]methyl]-cyclopropane-carboxamide]
≥ 80%: pest or weed control at 200 ppm [1] | pest or weed control at 200 ppm [2] | pest or weed control at 200 ppm (Phakopsora Pachyrhizi) | inhibition of growth at 20 ppm [3]

C#CCN(Cc1ccc(-c2noc(C(F)(F)F)n2)cc1)C(=O)C(CC)COC (centres unmarked) [Compound 1.194, 2-(methoxymethyl)-N-prop-2-ynyl-N-[[4-[5-(trifluoromethyl)-1,2,4-oxadiazol-3-yl]phenyl]methyl]-butanamide]
≥ 80%: pest or weed control at 200 ppm [1] | pest or weed control at 200 ppm [2] | pest or weed control at 200 ppm (Phakopsora Pachyrhizi) | inhibition of growth at 20 ppm [3]

O=C(Cc1cccnc1)N(Cc1ccc(-c2noc(C(F)(F)F)n2)cc1)C1CC1 [Compound 1.102, N-cyclopropyl-2-(3-pyridyl)-N-[[4-[5-(trifluoromethyl)-1,2,4-oxadiazol-3-yl]phenyl]methyl]-acetamide]
≥ 80%: pest or weed control at 200 ppm [1] | pest or weed control at 200 ppm [2] | pest or weed control at 200 ppm (Phakopsora Pachyrhizi) | inhibition of growth at 20 ppm [3]

CCN(Cc1ccc(-c2noc(C(F)(F)F)n2)cc1)C(=O)CCCOC [Compound 1.507, N-ethyl-4-methoxy-N-[[4-[5-(trifluoromethyl)-1,2,4-oxadiazol-3-yl]phenyl]methyl]-butanamide]
≥ 80%: pest or weed control at 200 ppm [1] | pest or weed control at 200 ppm [2] | pest or weed control at 200 ppm (Phakopsora Pachyrhizi) | inhibition of growth at 20 ppm [3]

CC(C)C(=O)N(O)Cc1ccc(-c2noc(C(F)(F)F)n2)cc1 [Compound 1.752, N-hydroxy-2-methyl-N-[[4-[5-(trifluoromethyl)-1,2,4-oxadiazol-3-yl]phenyl]methyl]-propanamide]
≥ 80%: pest or weed control at 200 ppm [1] | pest or weed control at 200 ppm [2] | pest or weed control at 200 ppm (Phakopsora Pachyrhizi) | inhibition of growth at 20 ppm [3]

O=C(C1CCOC1)N(Cc1ccc(-c2noc(C(F)(F)F)n2)cc1)CC(F)(F)F (centres unmarked) [Compound 1.692, N-(2.2.2-trifluoroethyl)-N-[[4-[5-(trifluoromethyl)-1,2,4-oxadiazol-3-yl]phenyl]methyl]-tetrahydrofuran-3-carboxamide]
≥ 80%: pest or weed control at 200 ppm [1] | pest or weed control at 200 ppm [2] | pest or weed control at 200 ppm (Phakopsora Pachyrhizi) | inhibition of growth at 20 ppm [3]

COCCN(Cc1ccc(-c2noc(C(F)(F)F)n2)cc1)C(=O)C1CCC1 [Compound 1.337, N-(2-methoxyethyl)-N-[[4-[5-(trifluoromethyl)-1,2,4-oxadiazol-3-yl]phenyl]methyl]-cyclobutane-carboxamide]
≥ 80%: pest or weed control at 200 ppm [1] | pest or weed control at 200 ppm [2] | pest or weed control at 200 ppm (Phakopsora Pachyrhizi) | inhibition of growth at 20 ppm [3]

COC(C)C(=O)N(Cc1ccc(-c2noc(C(F)(F)F)n2)c(F)c1)OC (centres unmarked) [Compound 1.783, N-[[3-fluoro-4-[5-(trifluoromethyl)-1,2,4-oxadiazol-3-yl]phenyl]methyl]-N,2-dimethoxy-propanamide]
≥ 80%: pest or weed control at 200 ppm [1] | pest or weed control at 200 ppm [2] | pest or weed control at 200 ppm (Phakopsora Pachyrhizi) | inhibition of growth at 20 ppm [3]

CC1CC1C(=O)N(Cc1ccc(-c2noc(C(F)(F)F)n2)cc1)C(C)C (centres unmarked) [Compound 1.676, N-isopropyl-2-methyl-N-[[4-[5-(trifluoromethyl)-1,2,4-oxadiazol-3-yl]phenyl]methyl]-cyclopropane-carboxamide]
≥ 80%: pest or weed control at 200 ppm [1] | pest or weed control at 200 ppm [2] | pest or weed control at 200 ppm (Phakopsora Pachyrhizi) | inhibition of growth at 20 ppm [3]

CCCON(Cc1ccc(-c2noc(C(F)(F)F)n2)cc1)C(=O)C(C)OC (centres unmarked) [Compound 1.316, 2-methoxy-N-propoxy-N-[[4-[5-(trifluoromethyl)-1,2,4-oxadiazol-3-yl]phenyl]methyl]-propanamide]
≥ 80%: pest or weed control at 200 ppm [1] | pest or weed control at 200 ppm [2] | pest or weed control at 200 ppm (Phakopsora Pachyrhizi) | inhibition of growth at 20 ppm [3]

CON(Cc1ccc(-c2noc(C(F)(F)F)n2)cc1)C(=O)c1ccccc1 [Compound 1.3, N-methoxy-N-[[4-[5-(trifluoromethyl)-1,2,4-oxadiazol-3-yl]phenyl]methyl]-benzamide]
≥ 80%: pest or weed control at 200 ppm [1] | pest or weed control at 200 ppm [2] | pest or weed control at 200 ppm (Phakopsora Pachyrhizi) | inhibition of growth at 20 ppm [3]

CCON(Cc1ccc(-c2noc(C(F)(F)F)n2)cc1)C(=O)C(C)C [Compound 1.614, N-ethoxy-2-methyl-N-[[4-[5-(trifluoromethyl)-1,2,4-oxadiazol-3-yl]phenyl]methyl]-propanamide]
≥ 80%: pest or weed control at 200 ppm [1] | pest or weed control at 200 ppm [2] | pest or weed control at 200 ppm (Phakopsora Pachyrhizi) | inhibition of growth at 20 ppm [3]

CCC(C)C(=O)N(Cc1ccc(-c2noc(C(F)(F)F)n2)cc1)CC1CC1 (centres unmarked) [Compound 1.233, N-(cyclopropylmethyl)-2-methyl-N-[[4-[5-(trifluoromethyl)-1,2,4-oxadiazol-3-yl]phenyl]methyl]-butanamide]
≥ 80%: pest or weed control at 200 ppm [1] | pest or weed control at 200 ppm [2] | pest or weed control at 200 ppm (Phakopsora Pachyrhizi) | inhibition of growth at 20 ppm [3]

CCN(Cc1ccc(-c2noc(C(F)(F)F)n2)cc1)C(=O)NC [Compound 3.52, 1-ethyl-3-methyl-1-[[4-[5-(trifluoromethyl)-1,2,4-oxadiazol-3-yl]phenyl]methyl]urea]
≥ 80%: pest or weed control at 200 ppm [1] | pest or weed control at 200 ppm [2] | pest or weed control at 200 ppm (Phakopsora Pachyrhizi) | inhibition of growth at 20 ppm [3]

CCCN(Cc1ccc(-c2noc(C(F)(F)F)n2)cc1)C(=O)COC [Compound 1.575, 2-methoxy-N-propyl-N-[[4-[5-(trifluoromethyl)-1,2,4-oxadiazol-3-yl]phenyl]methyl]-acetamide]
≥ 80%: pest or weed control at 200 ppm [1] | pest or weed control at 200 ppm [2] | pest or weed control at 200 ppm (Phakopsora Pachyrhizi) | inhibition of growth at 20 ppm [3]

C=CCN(Cc1ccc(-c2noc(C(F)(F)F)n2)cc1)C(=O)C1CC1C (centres unmarked) [Compound 1.480, N-allyl-2-methyl-N-[[4-[5-(trifluoromethyl)-1,2,4-oxadiazol-3-yl]phenyl]methyl]-cyclopropane-carboxamide]
≥ 80%: pest or weed control at 200 ppm [1] | pest or weed control at 200 ppm [2] | pest or weed control at 200 ppm (Phakopsora Pachyrhizi) | inhibition of growth at 20 ppm [3]

COCCC(=O)N(O)Cc1ccc(-c2noc(C(F)(F)F)n2)cc1 [Compound 1.758, N-hydroxy-3-methoxy-N-[[4-[5-(trifluoromethyl)-1,2,4-oxadiazol-3-yl]phenyl]methyl]-propanamide]
≥ 80%: pest or weed control at 200 ppm [1] | pest or weed control at 200 ppm [2] | pest or weed control at 200 ppm (Phakopsora Pachyrhizi) | inhibition of growth at 20 ppm [3]

Reference: patent US11180462B2, “Microbiocidal oxadiazole derivatives” (SYNGENTA PARTICIPATIONS AG, priority 2015, dated 2021)
